The source made the active and inactive calls. No cut-off for these calls is given here. *1 amine or outer side, *2 acyl side, *3 side chain or, on linkers, in order; H or OH if unused. Where a SMILES comes first, the peptide text is derived from it. Bridges are numbered along the chain shown (N, C = ends). [ ]: non-standard residue; d: D form. The star is where a group is joined. X1 = O=C1C[C@@H](C(=O)[*:2])N([*:1])C[C@H]1CS[C@@H]1CN2CCC1CC2; NMePhe(4-NMe2) = CN[C@@H](Cc1ccc(N(C)C)cc1)C(=O)O; Picolinoyl(3-OH) = O=C(c1ncccc1O)*; Phg = N[C@H](C(=O)O)c1ccccc1; dAbu = CC[C@@H](N)C(=O)O
Experiments:
COMI [1] = experiment: Inhibition of mitochondrial translation in human COMI cells assessed as decrease in ND3 expression level at 0.5 to 5 uM incubated for 48 hrs in the presence of quinupristin by immunoblotting analysis; type: functional, cell-based; settings: dose 0.5-5 µM
COMI [2] = experiment: Inhibition of mitochondrial translation in human COMI cells assessed as decrease in COX2 expression level at 0.5 to 5 uM incubated for 48 hrs by immunoblotting analysis; type: functional, cell-based; settings: dose 0.5-5 µM
COMI [3] = experiment: Inhibition of mitochondrial translation in human COMI cells assessed as decrease in COX2 expression level at 0.5 to 5 uM incubated for 48 hrs in the presence of quinupristin by immunoblotting analysis; type: functional, cell-based; settings: dose 0.5-5 µM
VIPI [4] = experiment: Growth inhibition of human VIPI cells incubated for 48 hrs in the presence of quinupristin by Hoechst 33342/PI staining based analysis; type: functional
COMI [5] = experiment: Growth inhibition of human COMI cells incubated for 48 hrs in the presence of quinupristin by Hoechst 33342/PI staining based analysis; type: functional
COMI [6] = experiment: Growth inhibition of human COMI cells in the presence of quinupristin; type: functional
VIPI [7] = experiment: Growth inhibition of human VIPI cells in the presence of quinupristin; type: functional
COMI [8] = experiment: Potency index, ratio of temozolomide GI50 to test compound GI50 for human COMI cells in the presence of quinupristin; type: functional
COMI [9] = experiment: Inhibition of mitochondrial translation in human COMI cells assessed as increase in COX4 expression level at 0.5 to 5 uM incubated for 48 hrs in the presence of quinupristin by immunoblotting analysis; type: functional, cell-based; settings: dose 0.5-5 µM
COMI [10] = experiment: Inhibition of mitochondrial translation in human COMI cells assessed as decrease in ND3 expression level at 0.5 to 5 uM incubated for 48 hrs by immunoblotting analysis; type: functional, cell-based; settings: dose 0.5-5 µM
COMI [11] = experiment: Inhibition of mitochondrial translation in human COMI cells assessed as decrease in COX1 expression level at 0.5 to 5 uM incubated for 48 hrs in the presence of quinupristin by immunoblotting analysis; type: functional, cell-based; settings: dose 0.5-5 µM
COMI [12] = experiment: Inhibition of mitochondrial translation in human COMI cells assessed as decrease in ND3 expression level at 0.38 uM incubated for 24 hrs in the presence of emetine by [35S]-methionine labelling based SDS-PAGE analysis; type: functional, cell-based
COMI [13] = experiment: Inhibition of mitochondrial translation in human COMI cells assessed as decrease in COX1 expression level at 0.38 uM incubated for 24 hrs in the presence of emetine by [35S]-methionine labelling based SDS-PAGE analysis; type: functional, cell-based
COMI [14] = experiment: Inhibition of mitochondrial translation in human COMI cells assessed as decrease in COX2 expression level at 0.5 uM incubated for 24 hrs in the presence of quinupristin and emetine by [35S]-methionine labelling based SDS-PAGE analysis; type: functional, cell-based
COMI [15] = experiment: Inhibition of mitochondrial translation in human COMI cells assessed as decrease in ND3 expression level at 0.5 uM incubated for 24 hrs in the presence of quinupristin and emetine by [35S]-methionine labelling based SDS-PAGE analysis; type: functional, cell-based
COMI [16] = experiment: Growth inhibition of human COMI cells incubated for 48 hrs by Hoechst 33342/PI staining based analysis; type: functional
[17] = Potency index, ratio of temozolomide GI50 to test compound GI50 for human VIPI cells in the presence of quinupristin; type: functional
COMI [18] = experiment: Inhibition of mitochondrial translation in human COMI cells assessed as increase in COX4 expression level at 0.5 to 5 uM incubated for 48 hrs by immunoblotting analysis; type: functional, cell-based; settings: dose 0.5-5 µM
VIPI [19] = experiment: Growth inhibition of human VIPI cells incubated for 48 hrs by Hoechst 33342/PI staining based analysis; type: functional
COMI [20] = experiment: Inhibition of mitochondrial translation in human COMI cells assessed as decrease in COX2 expression level at 0.38 uM incubated for 24 hrs in the presence of emetine by [35S]-methionine labelling based SDS-PAGE analysis; type: functional, cell-based
COMI [21] = experiment: Inhibition of mitochondrial translation in human COMI cells assessed as decrease in COX1 expression level at 0.5 to 5 uM incubated for 48 hrs by immunoblotting analysis; type: functional, cell-based; settings: dose 0.5-5 µM
COMI [22] = experiment: Inhibition of mitochondrial translation in human COMI cells assessed as decrease in COX1 expression level at 0.5 uM incubated for 24 hrs in the presence of quinupristin and emetine by [35S]-methionine labelling based SDS-PAGE analysis; type: functional, cell-based
COMI [23] = experiment: Inhibition of mitochondrial translation in human COMI cells assessed as decrease in COX2 expression level at 0.5 to 5 uM incubated for 48 hrs in the presence of dalfopristin by immunoblotting analysis; type: functional, cell-based; settings: dose 0.5-5 µM
COMI [24] = experiment: Growth inhibition of human COMI cells in the presence of dalfopristin; type: functional
COMI [25] = experiment: Inhibition of mitochondrial translation in human COMI cells assessed as decrease in ND3 expression level at 0.5 to 5 uM incubated for 48 hrs in the presence of dalfopristin by immunoblotting analysis; type: functional, cell-based; settings: dose 0.5-5 µM
COMI [26] = experiment: Inhibition of mitochondrial translation in human COMI cells assessed as decrease in COX1 expression level at 0.5 to 5 uM incubated for 48 hrs in the presence of dalfopristin by immunoblotting analysis; type: functional, cell-based; settings: dose 0.5-5 µM
COMI [27] = experiment: Inhibition of mitochondrial translation in human COMI cells assessed as increase in COX4 expression level at 0.5 to 5 uM incubated for 48 hrs in the presence of dalfopristin by immunoblotting analysis; type: functional, cell-based; settings: dose 0.5-5 µM
COMI [28] = experiment: Inhibition of mitochondrial translation in human COMI cells assessed as decrease in COX1 expression level at 0.38 to 2 uM incubated for 24 hrs in the presence of emetine by [35S]-methionine labelling based SDS-PAGE analysis; type: functional, cell-based; settings: dose 0.38-2 µM
COMI [29] = experiment: Inhibition of mitochondrial translation in human COMI cells assessed as decrease in COX2 expression level at 0.38 to 2 uM incubated for 24 hrs in the presence of emetine by [35S]-methionine labelling based SDS-PAGE analysis; type: functional, cell-based; settings: dose 0.38-2 µM
COMI [30] = experiment: Inhibition of mitochondrial translation in human COMI cells assessed as decrease in ND3 expression level at 0.5 uM incubated for 24 hrs in the presence of dalfopristin and emetine by [35S]-methionine labelling based SDS-PAGE analysis; type: functional, cell-based
COMI [31] = experiment: Inhibition of mitochondrial translation in human COMI cells assessed as decrease in COX1 expression level at 0.5 uM incubated for 24 hrs in the presence of dalfopristin and emetine by [35S]-methionine labelling based SDS-PAGE analysis; type: functional, cell-based
COMI [32] = experiment: Potency index, ratio of temozolomide GI50 to test compound GI50 for human COMI cells in the presence of dalfopristin; type: functional
COMI [33] = experiment: Growth inhibition of human COMI cells incubated for 48 hrs in the presence of dalfopristin by Hoechst 33342/PI staining based analysis; type: functional
VIPI [34] = experiment: Growth inhibition of human VIPI cells incubated for 48 hrs in the presence of dalfopristin by Hoechst 33342/PI staining based analysis; type: functional
COMI [35] = experiment: Inhibition of mitochondrial translation in human COMI cells assessed as decrease in COX2 expression level at 0.5 uM incubated for 24 hrs in the presence of dalfopristin and emetine by [35S]-methionine labelling based SDS-PAGE analysis; type: functional, cell-based
VIPI [36] = experiment: Growth inhibition of human VIPI cells in the presence of dalfopristin; type: functional
COMI [37] = experiment: Inhibition of mitochondrial translation in human COMI cells assessed as decrease in ND3 expression level at 0.38 to 2 uM incubated for 24 hrs in the presence of emetine by [35S]-methionine labelling based SDS-PAGE analysis; type: functional, cell-based; settings: dose 0.38-2 µM
[38] = Potency index, ratio of temozolomide GI50 to test compound GI50 for human VIPI cells in the presence of dalfopristin; type: functional

What does the source list for `CCN(CC)CCS(=O)(=O)[C@@H]1CCN2C(=O)c3coc(n3)CC(=O)C[C@H](O)/C=C(C)/C=C/CNC(=O)/C=C/[C@@H](C)[C@@H](C(C)C)OC(=O)[C@@H]12` [DALFOPRISTIN]?
inhibition (COMI [1]): Active; inhibition (COMI [2]): Active; inhibition (COMI [3]): Active; GI50 (VIPI [4]): 20.2 µM; GI50 (COMI [5]): 6.5 µM; GI50 (COMI [6]): 6.5 µM; GI50 (VIPI [7]): 20.2 µM; RatioGI50 (COMI [8]): 15; inhibition (COMI [9]): Active; inhibition (COMI [10]): Active; inhibition (COMI [11]): Active; inhibition (COMI [12]): Active; inhibition (COMI [13]): Active; inhibition (COMI [14]): Active; inhibition (COMI [15]): Active; GI50 (COMI [16]): 8.6 µM; RatioGI50 [17]: 15; inhibition (COMI [18]): Active; GI50 (VIPI [19]): 16.2 µM; inhibition (COMI [20]): Active; inhibition (COMI [21]): Active; inhibition (COMI [22]): Active

For `CC[C@H]1NC(=O)[C@@H](NC(=O)c2ncccc2O)[C@@H](C)OC(=O)[C@H](c2ccccc2)NC(=O)[C@@H]2CC(=O)[C@H](CS[C@@H]3CN4CCC3CC4)CN2C(=O)[C@H](Cc2ccc(N(C)C)cc2)N(C)C(=O)[C@@H]2CCCN2C1=O` [QUINUPRISTIN] ({Picolinoyl(3-OH)}-T[dAbu]P[NMePhe(4-NMe2)][X1][Phg]; ester 1-C), which inhibition (COMI [2]) is on record?
The inhibition was “inactive”.

What about the inhibition (COMI [23]) of the same compound?
Its inhibition is “Active”.

And the GI50 (COMI [24])?
Its GI50 is 6.5 µM.

What about the inhibition (COMI [25]) of the same compound?
Its inhibition is “Active”.

What about the inhibition (COMI [26]) of the same compound?
The inhibition was “Active”.

And the inhibition (COMI [10])?
The inhibition was “inactive”.

And the inhibition (COMI [27])?
The inhibition was “Active”.

And the inhibition (COMI [28])?
Its inhibition is “inactive”.

And the inhibition (COMI [29])?
The inhibition was “inactive”.

What about the inhibition (COMI [30]) of the same compound?
Its inhibition is “Active”.

And the inhibition (COMI [31])?
Its inhibition is “Active”.

What about the RatioGI50 (COMI [32]) of the same compound?
Its RatioGI50 is 15.

What about the GI50 (COMI [33]) of the same compound?
Its GI50 is 6.5 µM.

And the GI50 (COMI [16])?
Its GI50 is 3 µM.

What about the GI50 (VIPI [34]) of the same compound?
Its GI50 is 20.2 µM.

What about the inhibition (COMI [35]) of the same compound?
Its inhibition is “Active”.

And the inhibition (COMI [18])?
Its inhibition is “inactive”.

And the GI50 (VIPI [19])?
The GI50 was 21.4 µM.

And the GI50 (VIPI [36])?
The GI50 was 20.2 µM.

What about the inhibition (COMI [21]) of the same compound?
Its inhibition is “inactive”.

What about the inhibition (COMI [37]) of the same compound?
Its inhibition is “inactive”.

And the RatioGI50 [38]?
The RatioGI50 was 15.
